Source: the supplement of paper PMC8671470

What was measured:
Details in all cases: 72 h
SHI-1 [1] = experiment: cell viability (% survival relative to DMSO control, bortezomib = 0%); higher = less cytotoxic
Method in brief: (§1)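 Reported values are percent survival from duplicate wells, averaged. Fifteen myeloid leukaemia cell lines were treated in 384-well plates with compounds at 1, 10, 100, 1000 or 10000 nM for 72 h at 37 °C in 5% CO2. Signals from CellTiter-Glo luminescence were scaled with vehicle as 100% and a 10 µM positive control as 0%.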

MV4-11 [2] = experiment: as above
Method in brief: as §1

HL-60 [3] = experiment: as above
Method in brief: as §1

Mono-Mac-6 [4] = experiment: as above
Method in brief: as §1

LAMA-84 [5] = experiment: as above
Method in brief: as §1

KU-812 [6] = experiment: as above
Method in brief: as §1

ML-2 [7] = experiment: as above
Method in brief: as §1

K-562 [8] = experiment: as above
Method in brief: as §1

THP-1 [9] = experiment: as above
Method in brief: as §1

HEL [10] = experiment: as above
Method in brief: as §1

KCL-22 [11] = experiment: as above
Method in brief: as §1

BV-173 [12] = experiment: as above
Method in brief: as §1

MOLM-13 [13] = experiment: as above
Method in brief: as §1

KG-1 [14] = experiment: as above
Method in brief: as §1

NOMO-1 [15] = experiment: as above
Method in brief: as §1

SHI-1 [16] = tested on: SHI-1
Method in brief: (§2)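 For the IC50, dose–response curves were fitted with a log-logistic model. The data came from fifteen myeloid leukaemia cell lines grown in RPMI 1640 at densities in the linear growth range and incubated in 384-well plates for 72 h at 37 °C under 5% CO2. Doses were five tenfold steps from 1 to 10,000 nM in duplicate, and luminescent ATP viability was normalised to vehicle and to a positive control at 10 µM before four-parameter fitting.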

MV4-11 [17] = tested on: MV4-11
Method in brief: as §2

HL-60 [18] = tested on: HL-60
Method in brief: as §2

Mono-Mac-6 [19] = tested on: Mono-Mac-6
Method in brief: as §2

LAMA-84 [20] = tested on: LAMA-84
Method in brief: as §2

KU-812 [21] = tested on: KU-812
Method in brief: as §2

ML-2 [22] = tested on: ML-2
Method in brief: as §2

K-562 [23] = tested on: K-562
Method in brief: as §2

THP-1 [24] = tested on: THP-1
Method in brief: as §2

HEL [25] = tested on: HEL
Method in brief: as §2

KCL-22 [26] = tested on: KCL-22
Method in brief: as §2

BV-173 [27] = tested on: BV-173
Method in brief: as §2

MOLM-13 [28] = tested on: MOLM-13
Method in brief: as §2

KG-1 [29] = tested on: KG-1
Method in brief: as §2

NOMO-1 [30] = tested on: NOMO-1
Method in brief: as §2

Clc1cc(Cl)c(OCC#CI)cc1Cl [Haloprogin]
cell viability [%]
Details	1 nM	10 nM	100 nM	1000 nM	10000 nM
BV-173 [12]	120	93	104	71.5	0.185
HEL [10]	103	101	106	106	0.615
HL-60 [3]	92.2	109	108	109	51.4
K-562 [8]	93.8	91.4	92.6	95.6	18.1
KCL-22 [11]	95.9	97.1	104	73.9	2.51
KG-1 [14]	108	101	101	101	0.829
KU-812 [6]	104	95	107	80.6	2.77
LAMA-84 [5]	94.4	94.6	99.9	101	21.7
ML-2 [7]	106	108	113	102	-0.066
MOLM-13 [13]	100	113	112	108	6.57
MV4-11 [2]	109	98	101	89	0.356
Mono-Mac-6 [4]	103	95.7	98.8	94.1	0.149
NOMO-1 [15]	109	103	109	98.2	0.243
SHI-1 [1]	97.8	112	107	99.5	62.6
THP-1 [9]	101	97.4	100	74	0.288

Details	IC50 (cell viability) [µM]
BV-173 [27]	1.58
HEL [25]	3.48
HL-60 [18]	> 10
K-562 [23]	5.06
KCL-22 [26]	1.71
KG-1 [29]	3.26
KU-812 [21]	2.03
LAMA-84 [20]	5.49
ML-2 [22]	3.25
MOLM-13 [28]	3.95
MV4-11 [17]	2.52
Mono-Mac-6 [19]	2.84
NOMO-1 [30]	3.09
SHI-1 [16]	> 10
THP-1 [24]	1.69

C#CCN[C@@H]1CCc2ccccc21 [Rasagiline]
cell viability [%]
Details	1 nM	10 nM	100 nM	1000 nM	10000 nM
BV-173 [12]	92.1	104	111	93.6	92.4
HEL [10]	118	115	117	90.1	135
HL-60 [3]	95.8	86.6	96.9	76.2	135
K-562 [8]	103	100	100	87.5	84.2
KCL-22 [11]	80.3	108	98.4	89.7	135
KG-1 [14]	88.3	116	98.5	89.8	114
KU-812 [6]	94.1	104	97.1	90.3	111
LAMA-84 [5]	98.2	106	106	91.8	97.2
ML-2 [7]	89.9	104	105	87.2	104
MOLM-13 [13]	93.9	109	111	95.9	111
MV4-11 [2]	97.8	104	108	91.7	96
Mono-Mac-6 [4]	92.4	105	101	80.9	100
NOMO-1 [15]	95.2	103	103	93.2	102
SHI-1 [1]	97.8	103	100	95.3	117
THP-1 [9]	102	102	103	96	101

Details	IC50 (cell viability) [µM]
BV-173 [27]	> 10
HEL [25]	> 10
HL-60 [18]	> 10
K-562 [23]	> 10
KCL-22 [26]	> 10
KG-1 [29]	> 10
KU-812 [21]	> 10
LAMA-84 [20]	> 10
ML-2 [22]	> 10
MOLM-13 [28]	> 10
MV4-11 [17]	> 10
Mono-Mac-6 [19]	> 10
NOMO-1 [30]	> 10
SHI-1 [16]	> 10
THP-1 [24]	> 10
